Data on one compound can be found in patent US7682785B2, “Method for predicting effectiveness of chemotherapy using anticancer agent” (Sysmex Corporation, priority 2005, dated 2010).

One assay deals with p21. Briefly: Expression level of p21 (WAF1 ELISA) in tumor tissue lysate of mouse heterograft after paclitaxel administration. It counts as in vivo, human. Further details: unit not given here. Particulars: 24 hours after 20 mg/kg single administration, one value per mouse. How it is done:
Expression level of p21 is measured using CALIBIOCHEM p21 WAF 1 ELISA kit (EMD Bioscience Inc.).
WAF1 sample solutions (mixture solutions of specimen and WAF1 standard solution containing lyophilized WAF1) were prepared by diluting the WAF1 standard solution (20 unit/ml lyophilized WAF1) stepwise with the cell lysate as the specimen. In each of the sample solutions, the cell lysate was diluted 4-times or more.
Into 96-well plastic plate in which rabbit polyclonal antibodies (primary antibody) specific to WAF1 was coated, 100 μl each of the WAF1 sample solution and the WAF1 standard solution were individually seeded into the wells. The well plate was sealed and incubated at room temperature for 2 hours for reaction with the primary antibody.
After the well plate was washed with a cleaning buffer, which was prepared by adding 25 ml of a 20-times concentrated solution to 475 ml de-ionized water, three times, 100 μl of antibodies (biotinylated anti-WAF1 monoclonal antibodies) for detection of […] were added to each well. Thereafter, the well plate was sealed and allowed to react at room temperature for 1 hour.
After the reaction, the well plate was washed with the cleaning buffer three times, and then, 100 μl of a peroxidase-conjugated streptavidine diluent was added into each well, and the mixture was stirred moderately. Thereafter, the well plate was sealed and allowed to react at room temperature for 30 minutes. After reaction, unbound peroxidase-conjugated streptavidine was removed by washing with the cleaning buffer three times. And then, 100 μl of a substrate solution (pigment source substrate) was added into each well, and the mixture was reacted at room temperature for 30 minutes. Upon lapse of 30 minutes after the addition, 100 μl of a stop solution (2.5 N sulfuric acid) was poured into each well to stop the reaction. Then, absorbance of each well's contents was measured using a plate reader at dual wavelength of 450/540 nm.
The concentration of p21WAF1 in the WAF1 sample solutions was calculated based on a standard curve of the WAF1 standard solution.
(§1) 5 kinds of human-derived breast cancer cultured cells (cells A to E) were subcutaneously implanted on the backs of forty-six mice (No. 1 to 46). The mice were raised for 21 to 28 days to engraft the breast cancer cells. […] Upon lapse of 24 hours after the administration, tissues (about 50 mg) in the size of 2.5 mm×2.5 mm was cut from the back of each mouse. Each of the tissues were homogenized using an electric homogenizer to dissolve dissolvable components in a buffer solution containing 0.1 w/v % nonidet P-40 (NP-40) (Calbiochem), 50 mM tris-HCl (pH: 7.4), 5 mM EDTA, 50 mM sodium fluoride, 1 mM sodium orothovanadate, and 100 μl/ml of protease inhibitor cocktail (Sigma, St. Louis, Mo.).
After removing insoluble components by centrifuging at 15,000 rpm for 5 minutes at 4 ° C., the obtained supernatants (cell lysates) were used as specimens.
Activity and expression level of CDK1 and CDK2 respectively were measured with respect to the specimens obtained in the experiment (1) in accordance with the aforementioned measurement method, and the specific activity of CDK1 and the specific activity of CDK2 in the specimens were calcurated. Also, the expression level of p21 in the specimens was measured in accordance with the aforementioned measurement method.

A further assay relates to CDK1. Briefly: CDK1 specific activity in tumor tissue lysate of mouse heterograft after paclitaxel administration. As to conditions: 24 hours after 20 mg/kg single administration, one value per mouse. It counts as in vivo, human. How it is done: A tissue specimen containing target tumor cells was prepared in a 1.5 ml-Eppendorf tube so that 100 μg lysate in terms of total protein mass was dissolved in a buffer solution of 500 μl. To the buffer solution, added were sepharose beads (Bio-Rad, Calif., U.S.A.) coated with 20 μl of a protein A and 2 μg of antibodies specific to the CDK whose activity was to be measured, i.e. polyclonal anti-CDK1-antibodies or polyclonal anti-CDK2-antibodies (Santa Cruz Biotechnology, Santa Cruz, Calif.). After the addition, the solution was reacted at 4° C. for 1 hour. Thereafter, the beads were washed with a buffer solution (0.1% NP-40 and 50 mM tris-HCl adjusted pH 7.0) three times, followed by re-suspension in a kinase buffer of 15 μl. Thus, a sample containing the beads to which the target CDK binds was yielded.
(§2) In the sample, all the CDK (hereinafter, if distinction is not necessary, simply called as “CDKs”) including CDK itself, activated CDK to which cycline binds, complexes of activated CDK and CDK inhibitor, and complexes of CDK and CDK inhibitor were bound to the antibodies, thereby fixing the CDKs to the beads. The activity of the CDKs in the sample was measured by the following measurement method.
(§3) Prepared was a substrate solution containing 5 mM adenosine 5′-O-([…]) (ATP-γS (Sigma)), a buffer solution (20 mM tris-HCl (pH: 7.4), 0.1% Triton-X-100), and 10 μg histon H1 (Upstate Biotechnology, Lake Placid, N.Y.) as a substrate for CDK1 and CDK2. The substrate solution was added to the aforementioned sample solution containing the CDKs up to the total volume of 50 μl. The resulting sample solution was shaken for 10 minutes at 37° C. for incubation. As shown by the following formula, serine or threonine residue in the substrate was phosphorylated by the activated CDK, and monothiophosphorylated substrate was yielded.
(§4) After the reaction, the sample solution was centrifuged at 20,000 rpm for 20 seconds to precipitate the beads, and 18 μl of a supernatant in which monothiophosphates were dissolved was obtained. To 18 μl of the supernatant, added was 15 μl of a buffer solution (150 mM tris-HCl (pH: 9.2) and 5 mM EDTA). Further, the resultant solution was incubated in 10 mM iodoacetyl biotin solution (100 mM tris-HCl (pH: 7.5) and 1 mM EDTA) in a dark place for 90 minutes at room temperature. Thereby, sulfur ions in the thiophosphates in the monothiophosphorylated substrate were labeled by biotinylation. The reaction of the iodoacetyl biotin with the thiophosphates was stopped by adding […].
0.4 μg of the biotinylated thiophosphorylated substrate was blotted on a PVDF membrane by using a slot blotter for adsorption. The blotted membrane was blocked with 1% of bovine serum albumin (BSA) for 30 minutes, followed by reaction with avidin-FITC (Vector, Burlingame, Calif.) at 37° C. for 1 hour. […] After the washing, the image on the membrane was analyzed by a fluorescent image analyzer (Bio-Rad, Calif. U.S.A.). The activity of the CDKs was calculated based on a standard curve.
The standard curve was created by adsorbing a protein (biotinylated immunoglobulin) of a known amount to a PVDF membrane, labeling the protein with FITC in the same manner as mentioned above, and measuring the fluorescent intensity of the protein by the fluorescent image analyzer (Bio-Rad). 1 U of the CDK activity to be measured is a value representing the fluorescent intensity substantially equivalent to the fluorescent amount of the target protein of 1 ng. […]

Assay [1] deals with human-derived breast cancer cultured cells (cell D). As to the kind of experiment: Effect of anticancer agent therapy for cancerous mice (change in tumor size), cell D heterograft. Type of assay: in vivo. Particulars: cell D implanted subcutaneously in mice; 20 mg/kg once a day for 5 days; tumor size to the 11th day. How it is done: as §1
(§5) The tumor size was measured from the start of the administration to the 11th day after the start of the administration. The chemotherapeutic effectiveness was classified, according to the change in tumor size, into Type I (high chemosensitivity), Type II (medium chemosensitivity), Type III (slightly low chemosensitivity), and Type IV (low chemosensitivity). […] The classification results are shown in the column of “Effect of therapy” in Table 1.

The next assay concerns CDK2. As to the kind of experiment: CDK2 specific activity in tumor tissue lysate of mouse heterograft after paclitaxel administration. Particulars: 24 hours after 20 mg/kg single administration, one value per mouse. Type of assay: in vivo, human. How it is done:
A tissue specimen containing target tumor cells was prepared in a 1.5 ml-Eppendorf tube so that 100 μg lysate in terms of total protein mass was dissolved in a buffer solution of 500 μl. […] After the addition, the solution was reacted at 4° C. for 1 hour. Thereafter, the beads were washed with a buffer solution (0.1% NP-40 and 50 mM tris-HCl adjusted pH 7.0) three times, followed by re-suspension in a kinase buffer of 15 μl. Thus, a sample containing the beads to which the target CDK binds was yielded.
as §2, §3, §4
0.4 μg of the biotinylated thiophosphorylated substrate was blotted on a PVDF membrane by using a slot blotter for adsorption. The blotted membrane was blocked with 1% of bovine serum albumin (BSA) for 30 minutes, followed by reaction with avidin-FITC (Vector, Burlingame, Calif.) at 37° C. for 1 hour. Thereafter, the membrane was washed with 50 mM TBS (25 mM tris-HCl (pH: 7.4) and 150 mM NaCl) for 10 minutes three times. After the washing, the image on the membrane was analyzed by a fluorescent image analyzer (Bio-Rad, Calif. U.S.A.). The activity of the CDKs was calculated based on a standard curve.
The standard curve was created by adsorbing a protein (biotinylated immunoglobulin) of a known amount to a PVDF membrane, labeling the protein with FITC in the same manner as mentioned above, and measuring the fluorescent intensity of the protein by the fluorescent image analyzer (Bio-Rad). 1 U of the CDK activity to be measured is a value representing the fluorescent intensity substantially equivalent to the fluorescent amount of the target protein of 1 ng.
An initialized PVDF membrane (Millipore, Billerica, Mass.) obtained by immersing the membrane in TBS (25 mM tris-HCl (pH: 7.4) and 150 mM NaCl) was set to a well plate for slot blotter. […]

Assay [2] concerns human-derived breast cancer cultured cells (cell A). Briefly: Effect of anticancer agent therapy for cancerous mice (change in tumor size), cell A heterograft. As to conditions: cell A implanted subcutaneously in mice; 20 mg/kg once a day for 5 days; tumor size to the 11th day. Type of assay: in vivo. How it is done:
as §1, §5

For assay [3], the system named is human-derived breast cancer cultured cells (cell E). Briefly: Effect of anticancer agent therapy for cancerous mice (change in tumor size), cell E heterograft. As to conditions: cell E implanted subcutaneously in mice; 20 mg/kg once a day for 5 days; tumor size to the 11th day. It counts as in vivo. How it is done:
as §1, §5

Assay [4] relates to human-derived breast cancer cultured cells (cell B). As to the kind of experiment: Effect of anticancer agent therapy for cancerous mice (change in tumor size), cell B heterograft. Type of assay: in vivo. As to conditions: cell B implanted subcutaneously in mice; 20 mg/kg once a day for 5 days; tumor size to the 11th day. How it is done: as §1, §5
Assay [5] deals with human-derived breast cancer cultured cells (cell C). Briefly: Effect of anticancer agent therapy for cancerous mice (change in tumor size), cell C heterograft. It counts as in vivo. As to conditions: cell C implanted subcutaneously in mice; 20 mg/kg once a day for 5 days; tumor size to the 11th day. How it is done: as §1, §5

Molecules are shown by their SMILES. Where “and” joins values, the source holds several entries; their conditions need not be identical. Identical values can stand only once.

`CC(=O)O[C@H]1C(=O)[C@@]2(C)[C@H]([C@H](OC(=O)c3ccccc3)[C@]3(O)C[C@H](OC(=O)[C@H](O)[C@@H](NC(=O)c4ccccc4)c4ccccc4)C(C)=C1C3(C)C)[C@]1(OC(C)=O)CO[C@@H]1C[C@@H]2O` [paclitaxel]: the “Expression level of p21” value was 1.43 and 1.34 and 1.93 and 1.28 and 0.00 and 0.86 and 1.26 in the assay with p21 (cell A tumor tissue); 4.09 and 4.61 and 5.18 and 5.25 and 5.41 and 5.57 and 5.33 and 5.00 and 3.42 and 4.33 and 5.43 in the assay on p21 (cell B tumor tissue); 1.06 and 1.44 and 0.00 (7×) and 1.31 and 0.85 and 0.77 and 0.64 and 0.57 and 0.53 and 0.29 with p21 (cell C tumor tissue); 8.76 and 7.21 and 7.62 and 7.34 and 6.39 and 5.40 and 0.74 in the assay with p21 (cell D tumor tissue); 34.45 and 10.96 and 15.33 and 17.25 and 15.25 with p21 (cell E tumor tissue). Besides, the “Specifc activity of CDK1” value with CDK1 (cell A tumor tissue) was 11.79 mU/ng and 10.83 mU/ng and 17.50 mU/ng and 21.77 mU/ng and 16.12 mU/ng and 16.82 mU/ng and 13.55 mU/ng; with CDK1 (cell B tumor tissue) it was 27.00 mU/ng and 31.56 mU/ng and 20.53 mU/ng and 13.39 mU/ng and 33.32 mU/ng and 32.01 mU/ng and 34.33 mU/ng and 34.21 mU/ng and 35.27 mU/ng and 25.40 mU/ng and 13.90 mU/ng; with CDK1 (cell C tumor tissue) it was 25.48 mU/ng and 11.25 mU/ng and 22.64 mU/ng and 39.14 mU/ng and 21.35 mU/ng and 11.22 mU/ng and 13.77 mU/ng and 7.06 mU/ng and 16.60 mU/ng and 11.60 mU/ng and 15.29 mU/ng and 12.58 mU/ng and 41.80 mU/ng and 60.36 mU/ng and 36.09 mU/ng and 30.85 mU/ng; in the assay on CDK1 (cell D tumor tissue), 10.75 mU/ng and 0.00 mU/ng and 7.10 mU/ng and 6.48 mU/ng and 22.16 mU/ng and 9.68 mU/ng and 10.04 mU/ng; in the assay on CDK1 (cell E tumor tissue), 9.81 mU/ng and 2.45 mU/ng and 8.76 mU/ng and 7.92 mU/ng and 8.29 mU/ng. The “Therapy using anticancer agent: Effect of therapy” value is recorded as “Type III” in assay [1]; “Type I” in assay [2]; “Type IV” in assay [3]; “Type II” in assay [4]; “Type II” in assay [5]. The “Specific activity of CDK2” value with CDK2 (cell A tumor tissue) was 734.6 mU/ng and 634.1 mU/ng and 1083.2 mU/ng and 766.4 mU/ng and 407.1 mU/ng and 574.5 mU/ng and 545.0 mU/ng; in the assay with CDK2 (cell B tumor tissue), 156.2 mU/ng and 192.8 mU/ng and 109.1 mU/ng and 328.6 mU/ng and 64.8 mU/ng and 130.5 mU/ng and 171.6 mU/ng and 140.3 mU/ng and 157.9 mU/ng and 92.1 mU/ng and 41.9 mU/ng; in the assay on CDK2 (cell C tumor tissue) it was 163.6 mU/ng and 213.3 mU/ng and 209.9 mU/ng and 341.2 mU/ng and 106.9 mU/ng and 206.6 mU/ng and 140.6 mU/ng and 98.6 mU/ng and 114.8 mU/ng and 201.8 mU/ng and 129.9 mU/ng and 151.0 mU/ng and 138.8 mU/ng and 187.9 mU/ng and 124.6 mU/ng and 136.6 mU/ng; in the assay on CDK2 (cell D tumor tissue), 0.0 mU/ng (4×) and 80.1 mU/ng and 23.6 mU/ng; in the assay on CDK2 (cell E tumor tissue), 55.7 mU/ng and 50.2 mU/ng and 59.1 mU/ng and 0.0 mU/ng and 56.4 mU/ng.
